# Values quoted from earlier work in patent US20080300304A1, “Ginger Fraction For Inhibiting Human Cyp Enzymes” (priority 2005, published 2008).
row,Compound,oral availability [%]
1,CC(C)c1c(C(=O)Nc2ccccc2)c(-c2ccccc2)c(-c2ccc(F)cc2)n1CC[C@@H](O)C[C@@H](O)CC(=O)O [atorvastatin],12
2,CCOC(=O)C1=C(C)NC(C)=C(C(=O)OC)C1c1cccc(Cl)c1Cl (stereo not drawn) [felodipine],15
3,CO[C@H]1/C=C/O[C@@]2(C)Oc3c(C)c(O)c4c(c3C2=O)C2=NC3(CCN(CC(C)C)CC3)NC2=C(NC(=O)/C(C)=C\C=C\[C@H](C)[C@H](O)[C@@H](C)[C@@H](O)[C@@H](C)[C@H](OC(C)=O)[C@@H]1C)C4=O [rifabutin],20
4,CO[C@H]1C[C@@H]2CC[C@@H](C)[C@@](O)(O2)C(=O)C(=O)N2CCCC[C@H]2C(=O)O[C@H]([C@H](C)C[C@@H]2CC[C@@H](O)[C@H](OC)C2)CC(=O)[C@H](C)/C=C(\C)[C@@H](O)[C@@H](OC)C(=O)[C@H](C)C[C@H](C)/C=C/C=C/C=C/1C [sirolimus],15
5,C=CC[C@@H]1/C=C(\C)C[C@H](C)C[C@H](OC)[C@H]2O[C@@](O)(C(=O)C(=O)N3CCCC[C@H]3C(=O)O[C@H](/C(C)=C/[C@@H]3CC[C@@H](O)[C@H](OC)C3)[C@H](C)[C@@H](O)CC1=O)[C@H](C)C[C@@H]2OC [tacrolimus],16

# Further lines, results first:
row,oral availability [%],Compound
1,38,COc1cc(N)c(Cl)cc1C(=O)NC1CCN(CCCOc2ccc(F)cc2)CC1OC (stereo not drawn) [cisapride]
2,8,CC(=O)O[C@@]12CO[C@@H]1C[C@H](O)[C@@]1(C)C(=O)[C@H](O)C3=C(C)[C@@H](OC(=O)[C@H](O)[C@@H](NC(=O)OC(C)(C)C)c4ccccc4)C[C@@](O)([C@@H](OC(=O)c4ccccc4)[C@H]21)C3(C)C [docetaxel]
3,4,CC[C@H](C)C(=O)O[C@H]1C[C@@H](C)C=C2C=C[C@H](C)[C@H](CC[C@@H]3C[C@@H](O)CC(=O)O3)[C@H]21 [lovastatin]
4,34,C/C=C/C[C@@H](C)C(=O)[C@H]1C(=O)N[C@@H](C(C)C)C(=O)N(C)CC(=O)N(C)[C@@H](CC(C)C)C(=O)N[C@@H](C(C)C)C(=O)N(C)[C@@H](CC(C)C)C(=O)N[C@@H](C)C(=O)N[C@H](C)C(=O)N(C)[C@@H](CC(C)C)C(=O)N(C)[C@@H](CC(C)C)C(=O)N(C)[C@@H](C(C)C)C(=O)N1C [valspodar]
